The text below walks through data of PubChem BioAssay (NCI).

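These data come from cells grown in 96-well plates and exposed to compound for 48 hours at five concentrations. GI50 = concentration required for 50% inhibition of growth. TGI marks complete inhibition of growth.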

Among the test systems are SN12C renal; HCT-15 colon; IGROV1 ovarian; NCI-H226 lung; SNB-75 CNS; ACHN renal; COLO 205 colon; NCI-H460 lung; SK-MEL-2 melanoma.
Common to all, as to experiment: NCI anticancer screen, dose series, 48 h

Take `O=C(Nc1cccc(O)c1)C(=O)C1C(=O)NC(=S)NC1=O`: the TGI in the test with SN12C renal, in the test on HCT-15 colon, in the test on IGROV1 ovarian, in the test with NCI-H226 lung, in the test on SNB-75 CNS and with ACHN renal was greater than 100 µM throughout. In addition, the TGI in the test on COLO 205 colon was greater than 100 µM.
Turning to `COCCOC(=O)C1=C(O)c2ccccc2S(=O)(=O)N1C`, the TGI in the test with SN12C renal is greater than 100 µM; in the test on HCT-15 colon it was greater than 100 µM; in the test on IGROV1 ovarian it was greater than 100 µM; in the test with NCI-H460 lung it was greater than 100 µM; in the test on NCI-H226 lung, greater than 100 µM; in the test with SNB-75 CNS, 87.6 µM. In addition, the TGI in the test with SK-MEL-2 melanoma, with ACHN renal and in the test with COLO 205 colon was greater than 100 µM throughout.
Take `CCC1=CCN(c2cc(C)ccn2)OC1c1ccc(OC)cc1` (stereo not drawn): the TGI was 64.6 µM with SN12C renal; greater than 100 µM in the test on HCT-15 colon; greater than 100 µM with IGROV1 ovarian; greater than 100 µM in the test with NCI-H460 lung; greater than 100 µM with NCI-H226 lung; greater than 100 µM with SNB-75 CNS. In addition, the figures for the TGI in the test on SK-MEL-2 melanoma, with ACHN renal and in the test on COLO 205 colon were 41.4 µM, greater than 100 µM and 33.6 µM, respectively.
For `COc1ccc2c(c1)C(=O)CCc1cc(OC)c(OC)c(OC)c1-2`, the GI50 in the test with SN12C renal is less than 0.01 µM; with HCT-15 colon, less than 0.01 µM; in the test with NCI-H460 lung, less than 0.01 µM; in the test with NCI-H226 lung it was less than 0.01 µM; in the test on SK-MEL-2 melanoma it was less than 0.01 µM; with ACHN renal, 0.0505 µM. Moreover, the GI50 with COLO 205 colon was less than 0.01 µM. Moreover, the TGI is greater than 100 µM with SN12C renal; greater than 100 µM in the test with HCT-15 colon; greater than 100 µM in the test with NCI-H460 lung; greater than 100 µM in the test on ACHN renal; 16.9 µM in the test on COLO 205 colon.
As to `O=C(Nc1ccc(C(F)(F)F)cc1[N+](=O)[O-])C(=O)C1NC(=S)NC1=O` (stereo not drawn), the TGI was 5.05 µM in the test on SN12C renal; greater than 100 µM in the test with HCT-15 colon; greater than 100 µM with IGROV1 ovarian; greater than 100 µM in the test on NCI-H460 lung; 24.1 µM with NCI-H226 lung; 97.2 µM in the test with SNB-75 CNS. Also, the results for the TGI in the test on SK-MEL-2 melanoma, with ACHN renal and with COLO 205 colon were greater than 100 µM, greater than 100 µM and 26.6 µM, respectively.
In the case of `NC(CCCC(N)P(=O)(O)O)P(=O)(O)O` (stereo not drawn), the TGI with SN12C renal, with HCT-15 colon, with IGROV1 ovarian, in the test with NCI-H460 lung, in the test on NCI-H226 lung and in the test with SNB-75 CNS was greater than 100 µM throughout. Moreover, the TGI in the test with ACHN renal and with COLO 205 colon was greater than 100 µM each time.
For `CC(=O)Oc1cc2c(cc1OC(C)=O)C1(C)CCC2(C)c2cc(OC(C)=O)c(OC(C)=O)cc21`, the TGI in the test with SN12C renal is greater than 100 µM; with HCT-15 colon, 85.3 µM; in the test with IGROV1 ovarian it was 72.3 µM; in the test with NCI-H460 lung, 50 µM; with SNB-75 CNS, 91.7 µM; in the test with SK-MEL-2 melanoma, 66.4 µM. In addition, the TGI with ACHN renal and in the test on COLO 205 colon was greater than 100 µM throughout.
For `CC(=O)c1ccc(NC(=O)/C(CC(=O)c2sc(-c3cccnc3)nc2C)=N/NC(N)=O)cc1`, the TGI in the test on SN12C renal was greater than 100 µM; in the test with HCT-15 colon, greater than 100 µM; with IGROV1 ovarian, greater than 100 µM; in the test with NCI-H460 lung it was greater than 100 µM; in the test on NCI-H226 lung it was 75.6 µM; in the test on SK-MEL-2 melanoma, greater than 100 µM. Further, the TGI in the test on ACHN renal turned out to be 56.1 µM; in the test with COLO 205 colon, 35.2 µM.
As for `O=C1C=CC(=O)C2C1C1(Cl)C(Cl)=C(Cl)C2(Cl)C1(Cl)Cl` (stereo not drawn), the GI50 is 6 µM in the test with SN12C renal; 4.11 µM in the test on HCT-15 colon; 2.92 µM with IGROV1 ovarian; 3.06 µM with NCI-H460 lung; 10.8 µM in the test with NCI-H226 lung; 1.13 µM with SNB-75 CNS. The GI50 with SK-MEL-2 melanoma was 3.18 µM; in the test with ACHN renal it was 4.18 µM; in the test on COLO 205 colon, 11.5 µM. The TGI is 25.6 µM in the test with SN12C renal; 22.4 µM in the test on HCT-15 colon; 19.2 µM in the test on IGROV1 ovarian; 9.04 µM with NCI-H460 lung; 49.1 µM in the test on NCI-H226 lung; 5.48 µM in the test with SNB-75 CNS. The TGI with SK-MEL-2 melanoma was 8.99 µM; with ACHN renal, 18.3 µM; in the test on COLO 205 colon, 27.2 µM.
Turning to `COc1ccc(NC(=O)CC/C(CC(=O)c2ccco2)=N/NC(=O)C(N)=O)cc1`, the TGI in the test on SN12C renal, in the test with HCT-15 colon, in the test with IGROV1 ovarian, in the test with NCI-H460 lung, in the test on NCI-H226 lung and in the test on SNB-75 CNS was greater than 100 µM throughout. In addition, the TGI in the test with SK-MEL-2 melanoma, in the test on ACHN renal and in the test with COLO 205 colon was greater than 100 µM in each case.
In the case of `O=S(=O)(C1=CC(S(=O)(=O)c2ccccc2)CN(Cc2ccccc2)C1c1cccc2ccccc12)c1ccccc1` (stereo not drawn), the TGI in the test on SN12C renal, in the test on HCT-15 colon, in the test with IGROV1 ovarian, in the test on NCI-H460 lung, in the test on NCI-H226 lung and with SNB-75 CNS was greater than 69 µM throughout. The TGI in the test with SK-MEL-2 melanoma and in the test on ACHN renal was greater than 69 µM in each case.
As to `CC(=O)Oc1c(C)c(-c2ccccc2)c(C)c(-c2ccccc2)c1C(=S)c1ccccc1`, the TGI in the test on SN12C renal, with HCT-15 colon, in the test on IGROV1 ovarian, in the test on NCI-H460 lung, in the test on NCI-H226 lung and with SNB-75 CNS was greater than 100 µM throughout. Also, the TGI with SK-MEL-2 melanoma, in the test with ACHN renal and in the test on COLO 205 colon was greater than 100 µM throughout.
On to `C=CC[P@]1(=O)O[C@H](c2ccccc2)[C@H](C)N1C`, for which the TGI with SN12C renal, with HCT-15 colon, in the test on IGROV1 ovarian, in the test on NCI-H460 lung, with NCI-H226 lung and in the test on SNB-75 CNS was greater than 100 µM throughout. The TGI in the test on ACHN renal is greater than 100 µM.
`COc1ccc(C=O)cc1O[Si](C)(C)C(C)(C)C`: the TGI with SN12C renal, in the test on HCT-15 colon, in the test on IGROV1 ovarian, in the test on NCI-H460 lung, with SNB-75 CNS and with SK-MEL-2 melanoma was greater than 100 µM in each case. For the same compound, the TGI in the test on ACHN renal and in the test on COLO 205 colon was greater than 100 µM each time.
`CC1(O)C(C)(O)C2(C)O[Te]3(OC12C)OC1(C)C(C)(O)C(C)(O)C1(C)O3` (stereo not drawn): the TGI in the test on SN12C renal was greater than 100 µM; in the test with HCT-15 colon, 34.4 µM; in the test with IGROV1 ovarian, 35.7 µM; with NCI-H460 lung, 47.9 µM; in the test with NCI-H226 lung it was 89.2 µM; in the test with SNB-75 CNS, greater than 100 µM. Moreover, the TGI in the test on SK-MEL-2 melanoma, in the test on ACHN renal and in the test on COLO 205 colon was greater than 100 µM each time.
